The results in this text go back to ChEMBL document CHEMBL1201862, “PubChem BioAssay data set” (2004).

Some test systems named below: LOX IMVI; OVCAR-5; NCI-H226; MCF7; SNB-19; SK-MEL-28; ACHN; OVCAR-3; KM12; CCRF-CEM; HCC 2998; UACC-257; A498; MDA-MB-231; SNB-75; UO-31; SF-268; HL-60; HOP-92; NCI-H460.
Holding throughout (assay): inhibition of tumour cell growth, NCI panel, 48 h

Each structure is given as a SMILES string.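 Grown in 96-well plates, cells were treated for 48 hours with each compound at five concentrations. Insufficient inhibition: endpoint recorded as highest concentration tested. GI50: concentration for 50% inhibition of growth.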 Activity calls are given as the source filed them. Cut-off read from the data, not from the text of the source: active = GI50 up to about 1.1 µM and inactive = higher.

As to `C=C(C)CN(CC#N)CC(=C)C`, the GI50 with LOX IMVI, with OVCAR-5, with NCI-H226, in the test with MCF7, in the test on SNB-19 and in the test on SK-MEL-28 was > 100 µM (inactive) each time. Besides, the GI50 in the test with ACHN, in the test with OVCAR-3, in the test on KM12, with CCRF-CEM, in the test with HCC 2998 and in the test on UACC-257 was > 100 µM (inactive) each time. The GI50 in the test with A498, in the test with MDA-MB-231, in the test with SNB-75, in the test on UO-31, with SF-268 and with HL-60 was > 100 µM (inactive) in each case.

As to `CC(C)(C)/C(=N\Nc1nc2ccccc2[nH]1)c1ccccn1`, the GI50 in the test with LOX IMVI is > 100 µM (inactive); in the test on HOP-92, 24.9 µM (inactive); with NCI-H226, > 100 µM (inactive); in the test on MCF7, 24.9 µM (inactive); with SNB-19, > 100 µM (inactive); in the test with SK-MEL-28, > 100 µM (inactive). Besides, the GI50 with ACHN was 81.3 µM (inactive); with OVCAR-3, 24.3 µM (inactive); with KM12 it was 86.5 µM (inactive); with CCRF-CEM, 46.1 µM (inactive); in the test on UACC-257, > 100 µM (inactive); with A498, > 100 µM (inactive). The GI50 in the test on NCI-H460 was > 100 µM (inactive); in the test with MDA-MB-231, > 100 µM (inactive); with UO-31, 42.9 µM (inactive); in the test on SF-268 it was > 100 µM (inactive).

For `N#C/C(=C\c1cn(Cc2ccccc2)c2ccccc12)c1nn(-c2ccccc2)c(N)c1C#N`, the GI50 was 32.2 µM (inactive) in the test with LOX IMVI; 8.41 µM (inactive) in the test on HOP-92; 18.8 µM (inactive) with OVCAR-5; 28.2 µM (inactive) in the test with MCF7; 13.6 µM (inactive) in the test with SNB-19; 27.7 µM (inactive) with SK-MEL-28. For the same compound, the GI50 in the test on ACHN was 18.7 µM (inactive); in the test with OVCAR-3 it was 18.2 µM (inactive); with KM12, 26.1 µM (inactive); with CCRF-CEM, 19.1 µM (inactive); in the test on UACC-257 it was 20.1 µM (inactive); in the test on A498 it was 16.7 µM (inactive). Moreover, the GI50 in the test with NCI-H460 was 12 µM (inactive); in the test on MDA-MB-231 it was 4.13 µM (inactive); in the test on SNB-75, 4.07 µM (inactive); with UO-31, 12.9 µM (inactive); with SF-268, 24.9 µM (inactive); with HL-60, 41.5 µM (inactive).

For the compound `Nc1ncnc2ccc(Sc3ccc4ncnc(N)c4c3)cc12`, the GI50 in the test on LOX IMVI is > 100 µM (inactive); in the test with HOP-92 it was 71.3 µM (inactive); in the test on OVCAR-5, > 100 µM (inactive); in the test on NCI-H226, > 100 µM (inactive); with MCF7, > 100 µM (inactive); in the test with SNB-19, > 100 µM (inactive). For the same compound, the GI50 in the test on SK-MEL-28, with ACHN, in the test on OVCAR-3, in the test on KM12, in the test on CCRF-CEM and in the test with UACC-257 was > 100 µM (inactive) each time. Besides, the GI50 in the test with A498, in the test on NCI-H460, with MDA-MB-231, in the test on SNB-75, in the test with UO-31 and with SF-268 was > 100 µM (inactive) each time. Further, the GI50 with HL-60 is > 100 µM (inactive).

With `CC(=O)Nc1ccc2c(c1)[nH]c(=O)c1cc(Cl)ccc12`, the GI50 with LOX IMVI was 19.5 µM (inactive); with OVCAR-5 it was 27 µM (inactive); with NCI-H226 it was 10.2 µM (inactive); in the test with MCF7 it was 4.48 µM (inactive); in the test with SNB-19, 65.9 µM (inactive); in the test on SK-MEL-28, 38.8 µM (inactive). The GI50 is 23.9 µM (inactive) in the test with ACHN; 26.5 µM (inactive) with KM12; 0.341 µM (active) in the test on CCRF-CEM; 38.5 µM (inactive) in the test on HCC 2998; 20.3 µM (inactive) in the test with UACC-257; 29.3 µM (inactive) in the test on A498. For the same compound, the GI50 was 10.4 µM (inactive) in the test on NCI-H460; 44.8 µM (inactive) with MDA-MB-231; 52.4 µM (inactive) in the test with SNB-75; 18.2 µM (inactive) in the test with UO-31; 26.9 µM (inactive) in the test with SF-268; 21.1 µM (inactive) with HL-60.

For `CC(C)NCCC(O)c1cc2ccccc2o1` (stereo not drawn), the GI50 in the test with LOX IMVI, with HOP-92, with OVCAR-5, with NCI-H226, in the test with MCF7 and in the test on SNB-19 was > 100 µM (inactive) in each case. Further, the GI50 in the test on SK-MEL-28, in the test on ACHN, in the test with OVCAR-3, in the test with KM12, in the test with UACC-257 and with A498 was > 100 µM (inactive) each time. Also, the GI50 with NCI-H460 was > 100 µM (inactive); in the test with MDA-MB-231 it was > 100 µM (inactive); with SNB-75, 7.67 µM (inactive); in the test on UO-31, > 100 µM (inactive); in the test on SF-268, > 100 µM (inactive).

As to `COc1ncnc2c1cnn2Cc1cn(COCC(O)CO)nn1` (stereo not drawn), the GI50 is > 100 µM (inactive) with LOX IMVI; 22.8 µM (inactive) with HOP-92; > 100 µM (inactive) in the test on OVCAR-5; > 100 µM (inactive) in the test with NCI-H226; > 100 µM (inactive) in the test with MCF7; > 100 µM (inactive) in the test with SNB-19. Besides, the GI50 in the test on SK-MEL-28, with ACHN, in the test with OVCAR-3, with KM12, in the test with CCRF-CEM and in the test with HCC 2998 was > 100 µM (inactive) each time. Besides, the GI50 with UACC-257 is > 100 µM (inactive); in the test on A498 it was > 100 µM (inactive); in the test with MDA-MB-231 it was > 100 µM (inactive); with UO-31, > 100 µM (inactive); in the test on SF-268, 16.3 µM (inactive); with HL-60 it was > 100 µM (inactive).

On to `COc1ccc(N2C(=O)/C(=C\c3cccc(Oc4ccccc4)c3)S(=O)(=O)C2c2ccccc2)cc1` (stereo not drawn), for which the GI50 is 27.6 µM (inactive) with LOX IMVI; 42.2 µM (inactive) with HOP-92; > 100 µM (inactive) in the test with OVCAR-5; 64.7 µM (inactive) in the test on NCI-H226; 26 µM (inactive) in the test on MCF7; 47 µM (inactive) with SNB-19. Moreover, the GI50 with SK-MEL-28 was > 100 µM (inactive); in the test with ACHN, 98.9 µM (inactive); with OVCAR-3, 28.1 µM (inactive); in the test with KM12 it was 22.5 µM (inactive); with CCRF-CEM, 73.6 µM (inactive); in the test with HCC 2998, > 100 µM (inactive). The GI50 is 26.1 µM (inactive) in the test with UACC-257; 28.9 µM (inactive) in the test with A498; 36.7 µM (inactive) with NCI-H460; 85.1 µM (inactive) in the test with MDA-MB-231; 53.6 µM (inactive) in the test on UO-31; 7.24 µM (inactive) in the test on HL-60.

`Cc1nc2c(=S)n(C)ncc2[nH]1`: the GI50 in the test with LOX IMVI, in the test on OVCAR-5, with NCI-H226, in the test on MCF7, in the test on SK-MEL-28 and in the test with ACHN was > 100 µM (inactive) throughout. The GI50 with OVCAR-3, in the test with KM12, in the test with CCRF-CEM, in the test with HCC 2998, in the test on UACC-257 and with A498 was > 100 µM (inactive) in each case. Moreover, the GI50 in the test on MDA-MB-231, in the test with SNB-75, in the test with UO-31 and in the test with HL-60 was > 100 µM (inactive) throughout.

With `CCC1c2[nH]c3ccccc3c2C[C@H]2C(=O)NC(Cc3ccccc3)C(=O)N12` (stereo partly drawn), the GI50 is 22.1 µM (inactive) in the test on LOX IMVI; 34.2 µM (inactive) in the test with HOP-92; 25.2 µM (inactive) with OVCAR-5; 28.4 µM (inactive) in the test with NCI-H226; 34.9 µM (inactive) with MCF7; 34.9 µM (inactive) with SNB-19. For the same compound, the GI50 was 40 µM (inactive) in the test with SK-MEL-28; 30.5 µM (inactive) in the test with ACHN; 31 µM (inactive) with OVCAR-3; 24.8 µM (inactive) with KM12; 26 µM (inactive) with HCC 2998; 18 µM (inactive) in the test with UACC-257. Moreover, the GI50 with A498 is 38.5 µM (inactive); in the test with MDA-MB-231, 21 µM (inactive); in the test with UO-31, 30.8 µM (inactive); in the test with SF-268, 27.2 µM (inactive); in the test with HL-60, 20.7 µM (inactive).

In the case of `CSc1ccc2c(c1)N(CCCN(C)C)c1ccccc1S2`, the GI50 in the test on LOX IMVI is 11.6 µM (inactive); in the test with HOP-92 it was 11.7 µM (inactive); in the test with OVCAR-5 it was 15.3 µM (inactive); with NCI-H226 it was 19.8 µM (inactive); in the test with MCF7, 11.9 µM (inactive); with SNB-19, 16.2 µM (inactive). The GI50 in the test with SK-MEL-28 was 2.29 µM (inactive); in the test on ACHN, 11.7 µM (inactive); in the test on OVCAR-3, 12.8 µM (inactive); with KM12 it was 11.8 µM (inactive); in the test on CCRF-CEM, 5.89 µM (inactive); in the test on UACC-257, 7.16 µM (inactive). Also, the GI50 in the test with A498 was 11.2 µM (inactive); in the test on NCI-H460, 10.8 µM (inactive); in the test on MDA-MB-231 it was 12.7 µM (inactive); in the test with SNB-75, 6.97 µM (inactive); in the test with SF-268 it was 13.6 µM (inactive); with HL-60, 12 µM (inactive).
